Data on one molecule can be found in US6994671B2, “Apparatus and method for screening, olfactory mucosa stimulating compound found by the screening method, and therapeutic apparatus and electrode section for measurement” (Matsushita Electric Industrial Co., Ltd., priority 2000, dated 2006).

For one assay, the system named is rat. The assay is described as follows: Blood pressure and heart rate of the rat while the compound is sprayed. It is filed as in vivo. The text has this:
The test animal fixing device 32 has a means for measuring physiological responses induced in an organism, such as the blood pressure, the heart rate, etc., of the test animal fixed therein. Measurement results obtained by the measuring means are supplied to the processing apparatus 36. Further, measurement results of the blood pressure, the heart rate, and the like, of the rat fixed in the test animal fixing device 32, which are obtained when the air containing the olfactory mucosa stimulating compound is sprayed from the atomizing nozzle 33, are supplied to the processing apparatus 36. The processing apparatus 36 determines the efficacy of the olfactory mucosa stimulating compound sprayed on the rat, based on the analyzed electrical signal pattern in the olfactory bulb and the measurement results of the blood pressure, the heart rate, and the like, of the rat. For example, if a decrease in the blood pressure of the rat is detected as a result of a stimulation of the olfactory mucosa by an olfactory mucosa stimulating compound, it is determined that the olfactory mucosa stimulating compound suppresses brain cells so as to induce a physiological response that lowers the blood pressure. Accordingly, the olfactory mucosa stimulating compound is identified as a compound effective in lowering the blood pressure. In this case, the electrical signal pattern obtained by the measuring electrode portion 10 is stored as data in the processing apparatus 36. After such an implantation operation of the measuring electrode portion 10, the rat was reared for three weeks under an environment which was cleaned with activated carbon so as to remove substances that produce aromas. Then, three weeks after the surgical operation, the rat was fixed in the test animal fixing device 32 of the screening apparatus 1 shown in FIG. 1. The terminal line 38, which extended from the body of the rat, was connected to the signal amplitude stimulating apparatus 34 outside the test animal fixing device 32. […] The response induced in the olfactory bulb of the rat was recorded in the form of an electrical signal from each micro electrode 16a of the measuring electrode portion 10. […] At the same time, the blood pressure and the heart rate of the rat were measured when cineole was sprayed on the rat. […] After the olfactory bulb of the rat had stabilized, cineole was sprayed into the test animal fixing device 32 together with air at an oxygen concentration 5% higher than normal air, and a response of the olfactory bulb of the rat obtained at that time was recorded in the form of an electrical signal from each micro electrode 16a of the measuring electrode portion 10.

Another assay relates to olfactory mucosa. Kind of assay: Electrical signal in the olfactory bulb on spraying the compound toward the olfactory mucosa, measured with implanted micro electrodes. It counts as in vivo. As to conditions: rat, sprayed with air for 5 minutes; FIG. 5 (a) vs (b). The text has this: A two-week-old rat was used as a test animal. The measuring electrode portion 10 shown in FIG. 4 was implanted into the rat by a surgical operation. In the measuring electrode portion 10, the length of the micro electrode 16a was 100 μm, and the interval between adjacent micro electrodes 16a in each electrode column 17 was 500 μm. Platinum was used as a conductive material for the needle-shaped conductive lead 16. Polyimide was used as the insulative film. […] In order to attach the measuring electrode portion 10 to the rat, Nembutal (barbiturate) was injected into the abdominal cavity of the rat in a quantity equal to […], so as to anesthetize the rat, and the anesthetized rat was fixed in the prone position. […] The response induced in the olfactory bulb of the rat was recorded in the form of an electrical signal from each micro electrode 16a of the measuring electrode portion 10. […] At the same time, the blood pressure and the heart rate of the rat were measured when cineole was sprayed on the rat. […] After the olfactory bulb of the rat had stabilized, cineole was sprayed into the test animal fixing device 32 together with air at an oxygen concentration 5% higher than normal air, and a response of the olfactory bulb of the rat obtained at that time was recorded in the form of an electrical signal from each micro electrode 16a of the measuring electrode portion 10.

The mark [1] stands for this setting: cineole sprayed with air, FIG. 6.
The mark [2] stands for this setting: result stated for normal oxygen concentration.

For the molecule `CC12CCC(CC1)C(C)(C)O2` [cineole], in the assay with rat (setting [1]), the blood pressure entry is listed as “increases in the blood pressure” and the heart rate entry is “increases”. In the assay on rat (setting [2]), the “blood pressure, air at normal oxygen concentration versus air at oxygen concentration 5% higher than normal air” value is “increased more greatly” and the “heart rate, air at normal oxygen concentration versus air at oxygen concentration 5% higher than normal air” value is listed as “increased more greatly”. Moreover, in the assay with olfactory mucosa, the “stimulation of the olfactory mucosa (electrical signals of the olfactory bulb, 16 micro electrodes)” value is reported as “stimulated the olfactory mucosa”.
